Patent US20230183248A1, “PYRROLO[1,2-D][1,2,4]TRIAZINE-2-YL-ACETAMIDES AS INHIBITORS OF THE NLRP3 INFLAMMASOME PATHWAY” (JANSSEN PHARMACEUTICA NV, priority 2020, published 2023)

How the values were obtained:
TNF = assay: PBMC assay: LPS-stimulated TNF cytokine levels; format: cell-based; conditions: human PBMCs, 30 min compound pre-incubation, 100 ng/ml LPS for 6 hrs, supernatant, MSD
Description: (§1) Peripheral venous blood was collected from healthy individuals and human peripheral blood mononuclear cells (PBMCs) were isolated from blood by Ficoll-Histopaque (Sigma-Aldrich, A0561) density gradient centrifugation. After isolation, PBMCs were stored in liquid nitrogen for later use. Upon thawing, PBMC cell viability was determined in growth medium (RPMI media supplemented with 10% fetal bovine serum, 1% Pen-Strep and 1% L-glutamine). Compounds were spotted in a 1:3 serial dilution in DMSO and diluted to the final concentration in 30 µl medium in 96 well plates (Falcon, 353072). PBMCs were added at a density of 7.5 × 10^4 cells per well and incubated for 30 min in a 5% CO2 incubator at 37° C. LPS stimulation was performed by addition of 100 ng/ml LPS (final concentration, Invivogen, tlrl-smlps) for 6 hrs followed by collection of cellular supernatant and the analysis of IL-1β […] and TNF cytokines levels (µM) via MSD technology according to manufacturers’ guidelines (MSD, K151A0H).
(§2) The IC50 values (for IL-1β) and EC50 values (TNF) were obtained on compounds of the invention/examples, and are depicted in the following table: […]

IL-1β = assay: PBMC assay: LPS-stimulated IL-1β release; format: cell-based; conditions: human PBMCs, 30 min compound pre-incubation, 100 ng/ml LPS for 6 hrs, supernatant, MSD
Description: as §1, §2

| SMILES | melting point | EC50 (TNF; Homo sapiens, PBMC) | IC50 (IL-1β; Homo sapiens, PBMC) | IC50 (IL-1β) | EC50 (TNF) |
| --- | --- | --- | --- | --- | --- |
| CC(C)c1cc2c(=O)n(CC(=O)N[C@H]3C[C@@](C)(O)C3)nc(C(C)C)n2c1 [Compound 68F] | 196.59 °C | > 10 µM | 0.16 µM | – | – |
| CCc1cc2c(=O)n(CC(=O)Nc3ccncn3)nc(N(C)CC)n2c1 [Compound 74F] | 156.3 °C | > 10 µM | 1.4 µM | – | – |
| CC(C)c1cc2c(=O)n(CC(=O)Nc3ccncn3)nc(N(C)C)n2c1 [Compound 55F] | 166.33 °C | > 10 µM | 0.36 µM | – | – |
| CC(C)c1nn(CC(=O)Nc2ccncn2)c(=O)c2cc(C3CC3)cn12 [Compound 50F] | 182.51 °C | > 10 µM | ~0.38 µM | – | – |
| C=C(OC)c1nn(CC(=O)Nc2ccncn2)c(=O)c2cc(C(C)C)cn12 [Compound 27F, 2-[7-isopropyl-4-(1-methoxyvinyl)-1-oxo-pyrrolo[1,2-d][1,2,4]triazin-2-yl]-N-pyrimidin-4-yl-acetamide] | 201.01 °C | > 10 µM | 1.89 µM | – | – |
| CC(C)c1nn(CC(=O)Nc2ccncn2)c(=O)c2cc(-c3ccccc3)cn12 [Compound 47F] | 209.7 °C | > 10 µM | > 10 µM | – | – |
| COC(C)c1cc2c(=O)n(CC(=O)Nc3ccncn3)nc(C(C)C)n2c1 (stereo not drawn) [Compound 88F] | – | > 10 µM | 7.08 µM | 9.06 µM | – |
| CCc1nn(CC(=O)Nc2ccncc2F)c(=O)c2cc(C3CC3)cn12 [Compound 21F] | – | > 10 µM | 0.68 µM | – | – |
| CCc1cc2c(=O)n(CC(=O)Nc3ccncn3)nc(N(C)C)n2c1 [Compound 73F, 2-(4-(dimethylamino)-7-ethyl-1-oxopyrrolo[1,2-d][1,2,4]triazin-2(1H)-yl)-N-(pyrimidin-4-yl)acetamide] | 178.1 °C | > 10 µM | 0.35 µM | – | – |
| CCN(C)c1nn(CC(=O)Nc2ccncn2)c(=O)c2cc(C(C)C)cn12 [Compound 26F] | 150.14 °C | > 10 µM | 1.32 µM | – | – |
| CC(C)c1nn(CC(=O)Nc2ccncn2)c(=O)c2cc(-c3ccn(C)n3)cn12 [Compound 90F] | – | > 10 µM | > 10 µM | – | – |
| CCc1cc2c(=O)n(CC(=O)Nc3ccncn3)nc(C(C)C)n2c1 [Compound 23F] | – | > 10 µM | 0.28 µM | – | – |
| CC(C)c1cc2c(=O)n(CC(=O)NC3CCOCC3)nc(C(C)C)n2c1 [Compound 51F] | 181.03 °C | > 10 µM | ~1.77 µM | – | – |
| CCc1nn(CC(=O)Nc2ccccc2OC)c(=O)c2cccn12 [Compound 13F] | 167.68 °C | > 10 µM | > 10 µM | – | – |
| CC(C)c1nn(CC(=O)Nc2ccncn2)c(=O)c2cc(CC3CCNCC3)cn12 [Compound 82F, 2-(4-isopropyl-1-oxo-7-(piperidin-4-ylmethyl)pyrrolo[1,2-d][1,2,4]triazin-2(1H)-yl)-N-(pyrimidin-4-yl)acetamide] | – | > 10 µM | > 10 µM | – | – |
| CC(C)c1nn(CC(=O)Nc2ccncn2)c(=O)c2cc(-c3cc[nH]n3)cn12 [Compound 92F] | – | > 10 µM | > 10 µM | – | – |
| CC(C)c1nn(CC(=O)Nc2ccncn2)c(=O)c2cc(C(=O)N(C)C)cn12 [Compound 77F] | – | > 10 µM | > 10 µM | – | – |

Other lines, results leading:

| melting point | EC50 (TNF; Homo sapiens, PBMC) | IC50 (IL-1β; Homo sapiens, PBMC) | IC50 (IL-1β) | EC50 (TNF) | SMILES |
| --- | --- | --- | --- | --- | --- |
| 247.56 °C | > 10 µM | 5.05 µM | – | – | CC(C)c1cc2c(=O)n(CC(=O)Nc3ccncn3)nc(C(C)O)n2c1 (stereo not drawn) [Compound 36F, 2-[4-(1-hydroxyethyl)-7-isopropyl-1-oxo-pyrrolo[1,2-d] [1,2,4]triazin-2-yl]-N-pyrimidin-4-yl-acetamide] |
| 149.7 °C | > 10 µM | 0.47 µM | – | – | CCCc1cc2c(=O)n(CC(=O)Nc3ccncn3)nc(C(C)C)n2c1 [Compound 59F] |
| 194.5 °C | > 10 µM | > 10 µM | – | – | CC(C)c1nn(CC(=O)Nc2ccncn2)c(=O)c2cc(F)cn12 [Compound 7F] |
| 142.64 °C | > 10 µM | 0.67 µM | – | – | CCc1cc2c(=O)n(CC(=O)Nc3ccncc3F)nc(C(C)C)n2c1 [Compound 22F] |
| 184.19 °C | > 10 µM | 0.89 µM | – | – | COCCc1nn(CC(=O)Nc2ccncn2)c(=O)c2cc(C(C)C)cn12 [Compound 24F] |
| 185.03 °C | > 10 µM | 3.7 µM | – | – | C=C(C)c1cc2c(=O)n(CC(=O)Nc3ccncn3)nc(C(C)C)n2c1 [Compound 16F, 2-(4-isopropyl-1-oxo-7-(prop-1-en-2-yl)pyrrolo[1,2-d][1,2,4]triazin-2(1H)-yl)-N-(pyrimidin-4-yl)acetamide] |
| 262.3 °C | > 10 µM | > 10 µM | – | – | CC(=O)c1cc2c(=O)n(CC(=O)Nc3ccncn3)nc(C(C)C)n2c1 [Compound 85F, 2-(7-acetyl-4-isopropyl-1-oxopyrrolo[1,2-d][1,2,4]triazin-2(1H)-yl)-N-(pyrimidin-4-yl)acetamide] |
| 201.37 °C | > 10 µM | 1.37 µM | – | – | COCc1nn(CC(=O)Nc2ccncn2)c(=O)c2cc(C(C)C)cn12 [Compound 63F] |
| 166.41 °C | > 10 µM | 1.01 µM | – | – | CCCCc1nn(CC(=O)Nc2ccncn2)c(=O)c2cc(C(C)C)cn12 [Compound 61F] |
| 217.95 °C | > 10 µM | > 10 µM | – | – | CC(C)c1nn(CC(=O)NC2CCOCC2)c(=O)c2cc(-c3ccccc3)cn12 [Compound 48F] |
| 171.4 °C | – | 0.37 µM | – | – | CCc1cc2c(=O)n(CC(=O)N[C@H]3C[C@@](C)(O)C3)nc(N(C)C)n2c1 [Compound 58F] |
| 284.78 °C | > 10 µM | > 10 µM | – | – | CC(=O)c1nn(CC(=O)Nc2ccncn2)c(=O)c2cc(C(C)C)cn12 [Compound 35F, 2-(4-acetyl-7-isopropyl-1-oxo-pyrrolo[1,2-d][1,2,4]triazin-2-yl)-N-pyrimidin-4-yl-acetamide] |
| – | > 10 µM | 0.99 µM | – | – | CC(C)c1nn(CC(=O)Nc2ccncn2)c(=O)c2cc(C3CCC3)cn12 [Compound 30F, 2-(7-cyclobutyl-4-isopropyl-1-oxo-pyrrolo[1,2-d][1,2,4]triazin-2-yl)-N-pyrimidin-4-yl-acetamide] |
| – | > 10 µM | 0.89 µM | – | – | CC(C)c1nn(CC(=O)Nc2ccncc2F)c(=O)c2cc(Br)cn12 [Compound 10F] |
| 279.37 °C | > 10 µM | 7.08 µM | 6.9 µM | – | CC(=O)NC(C)c1nn(CC(=O)Nc2ccncn2)c(=O)c2cc(C(C)C)cn12 (stereo not drawn) [Compound 65F] |
| – | > 10 µM | > 10 µM | – | – | CC(=O)N(C)Cc1cc2c(=O)n(CC(=O)Nc3ccncn3)nc(C(C)C)n2c1 [Compound 70F, N-((4-isopropyl-1-oxo-2-(2-oxo-2-(pyrimidin-4-ylamino)ethyl)-1,2-dihydropyrrolo[1,2-d][1,2,4]triazin-7-yl)methyl)-N-methylacetamide] |
| – | > 10 µM | > 10 µM | – | – | CC(=O)N1CC(c2nn(CC(=O)Nc3ccncn3)c(=O)c3cc(C(C)C)cn23)C1 [Compound 46F] |
| – | 19.8 µM | 0.14 µM | 0.26 µM | > 10 µM | CC(C)c1nn(CC(=O)Nc2ccc3nncn3c2)c(=O)c2cc(I)cn12 [Compound 71F] |
| 224.87 °C | > 10 µM | 0.32 µM | – | – | C/C(=N/O)c1nn(CC(=O)N[C@H]2C[C@@](C)(O)C2)c(=O)c2cc(C(C)C)cn12 [Compound 64F] |
| 211.91 °C | > 10 µM | 3.4 µM | – | – | CC(C)c1nn(CC(=O)Nc2ccncc2F)c(=O)c2cc(Cl)cn12 [Compound 9F] |
| 216.46 °C | > 10 µM | 1.67 µM | – | – | CC(C)c1nn(CC(=O)Nc2ccncn2)c(=O)c2cc(C(F)F)cn12 [Compound 29F] |
| – | > 10 µM | 0.71 µM | – | – | CC(C)c1nn(CC(=O)Nc2ccncn2)c(=O)c2cc(Br)cn12 [Compound 1F, 2-(7-bromo-4-isopropyl-1-oxo-pyrrolo[1,2-d][1,2,4]triazin-2-yl)-N-pyrimidin-4-yl-acetamide] |
| – | > 10 µM | 4.31 µM | – | – | CC(C)c1nn(CC(=O)Nc2ccncn2)c(=O)c2cc(C(C)F)cn12 (stereo not drawn) [Compound 39F, 2-[7-(1-fluoroethyl)-4-isopropyl-1-oxo-pyrrolo[1,2-d][1,2,4]triazin-2-yl]-N-pyrimidin-4-yl-acetamide] |
| – | > 10 µM | 8.26 µM | – | – | CC(C)c1nn(CC(=O)Nc2ccncn2)c(=O)c2cc(C(C)(C)F)cn12 [Compound 87F, 2-(7-(2-fluoropropan-2-yl)-4-isopropyl-1-oxopyrrolo[1,2-d][1,2,4]triazin-2(1H)-yl)-N-(pyrimidin-4-yl)acetamide] |
